In ChEMBL document CHEMBL1128282 (J Med Chem, 1995):
Activity calls are given as the source filed them. No cut-off for these calls is given here.

How the values were obtained:
Melatonin receptor [1] = biological target: T1, Melatonin receptor (Gallus gallus, UniProt P49288+P51050+P49285); assay: Binding affinity in chicken brain membranes by using [2-125I]melatonin in a competition radioligand binding assay; type: cell membranes, Membrane
Xenopus laevis [2] = species on record: Xenopus laevis; assay: Pigment aggregation response in Xenopus laevis Melanophores at 10e-8 M of concentration; Agonist response; type: functional; conditions: filed as agonist
Xenopus laevis [3] = species on record: Xenopus laevis; assay: Pigment aggregation response in Xenopus laevis Melanophores at 10e-5 M of concentration; No Agonist/antagonist response; type: functional
Xenopus laevis [4] = species on record: Xenopus laevis; assay: Pigment aggregation response in Xenopus laevis Melanophores; Antagonist; type: functional; conditions: filed as antagonist
Xenopus laevis [5] = species on record: Xenopus laevis; assay: Pigment aggregation response in Xenopus laevis Melanophores at 10e-6 M of concentration; Agonist; type: functional; conditions: filed as agonist
Xenopus laevis [6] = species on record: Xenopus laevis; assay: Pigment aggregation response in Xenopus laevis Melanophores at 10e-5 M of concentration; No Agonist response; type: functional
Xenopus laevis [7] = species on record: Xenopus laevis; assay: Pigment aggregation response in Xenopus laevis Melanophores at 10e-5 M of concentration; No agonist response; type: functional
Xenopus laevis [8] = species on record: Xenopus laevis; assay: Pigment aggregation response in Xenopus laevis Melanophores at 10e-5 M of concentration; Agonist; type: functional; conditions: filed as agonist
Xenopus laevis [9] = species on record: Xenopus laevis; assay: Pigment aggregation response in Xenopus laevis Melanophores at 10e-5 M of concentration; Antagonist; type: functional; conditions: filed as antagonist
Xenopus laevis [10] = species on record: Xenopus laevis; assay: Pigment aggregation response in Xenopus laevis Melanophores at 10e-7 M of concentration; Agonist; type: functional; conditions: filed as agonist
Melatonin receptor [11] = biological target: T1, Melatonin receptor; assay: Binding affinity in chicken brain membranes by using [2-125I]melatonin in a competition radioligand binding assay.; type: cell membranes, Membrane

| SMILES | Ki (Melatonin receptor [1]) | Response (Xenopus laevis [5]) | further results |
| --- | --- | --- | --- |
| O=C(CCc1ccccc1)NCCc1c(-c2ccccc2)[nH]c2ccccc12 | 7000 nM | – | Response (Xenopus laevis [3]): inactive |
| CCC(=O)NCCc1c(-c2ccccc2)[nH]c2ccccc12 | 70 nM | Agonist | – |
| CC(=O)NCCc1c(-c2ccccc2)[nH]c2ccccc12 | 100 nM | Agonist | – |
| O=C(NCCc1c(-c2ccccc2)[nH]c2ccccc12)C(F)(F)C(F)(F)F | 6500 nM | – | Response (Xenopus laevis [6]): inactive |
| [N-]=[N+]=NCC(=O)NCCc1c(-c2ccccc2)[nH]c2ccccc12 | 410 nM | Agonist | – |
| O=C(CBr)NCCc1c(-c2ccccc2)[nH]c2ccccc12 | 55 nM | Agonist | – |
| O=C(NCCc1c(-c2ccccc2)[nH]c2ccccc12)C12C[C@H]3C[C@@H](C1)C[C@@H](C2)C3 | 1100 nM | – | Response (Xenopus laevis [3]): inactive |
| COc1ccc2[nH]c(-c3ccccc3)c(CCNC(=O)C34C[C@H]5C[C@@H](C3)C[C@@H](C4)C5)c2c1 | 1100 nM | Agonist | – |
| COc1ccc2[nH]c(-c3ccccc3)c(CCNC(=O)CCc3ccccc3)c2c1 | 263 nM | Agonist | – |
| CC(Br)C(=O)NCCc1c(-c2ccccc2)[nH]c2ccccc12 (stereo not given) | 1900 nM | – | Response (Xenopus laevis [7]): inactive |
| COc1ccc2[nH]cc(CCNC(C)=O)c2c1 | – | – | Response (Xenopus laevis [2]): Agonist |
| CCCC(=O)NCCc1c(-c2ccccc2)[nH]c2ccccc12 | 112 nM | Agonist | – |
| CCn1c(-c2ccccc2)c(CCNC(C)=O)c2ccccc21 | 154 nM | – | Response (Xenopus laevis [8]): Agonist |
| COCC(CNC(=O)C1CCC1)c1c(-c2ccccc2)n(C)c2ccccc12 (stereo not given) | 659 nM | – | Response (Xenopus laevis [9]): Antagonist |
| CC(CNC(=O)C1CCC1)c1c(-c2ccccc2)n(C)c2ccccc12 (stereo not given) | 222 nM | – | Response (Xenopus laevis [9]): Antagonist |
| O=C(NCCc1c(-c2ccccc2)[nH]c2ccccc12)C1CC1 | 213 nM | – | Response (Xenopus laevis [4]): Antagonist |
| O=C(NCCc1c(-c2ccccc2)[nH]c2ccccc12)C(F)(F)F | 148 nM | Agonist | – |
| CC(=O)NCC(C)c1c(-c2ccccc2)n(C)c2ccccc12 (stereo not given) | 5.9 nM | – | Response (Xenopus laevis [10]): Agonist |
| COCC(CNC(C)=O)c1c(-c2ccccc2)n(C)c2ccccc12 (stereo not given) | – | – | Ki (Melatonin receptor [11]): 350 nM; Response (Xenopus laevis [9]): Antagonist |
| Cn1c(-c2ccccc2)c(CCNC(=O)C2CCC2)c2ccccc21 | 726 nM | – | Response (Xenopus laevis [9]): Antagonist |
| CC(=O)NCCc1c(-c2ccccc2)n(C)c2ccccc12 | 63 nM | Agonist | – |

Further lines, with some results ahead:

| Ki (Melatonin receptor [1]) | SMILES | Response (Xenopus laevis [5]) | further results |
| --- | --- | --- | --- |
| 0.0466 nM | CCC(=O)NCCc1c(-c2ccccc2)[nH]c2ccc(OC)cc12 | – | Response (Xenopus laevis [2]): Agonist |
| 565 nM | O=C(NCCc1c(-c2ccccc2)[nH]c2ccccc12)C1CCC1 | – | Response (Xenopus laevis [4]): Antagonist |
| 0.0596 nM | COc1ccc2[nH]c(-c3ccccc3)c(CCNC(C)=O)c2c1 | – | Response (Xenopus laevis [2]): Agonist |
| 32.8 nM | COc1ccc2[nH]c(-c3ccccc3)c(CCNC(=O)C3CCCC3)c2c1 | Agonist | – |
| 2.7 nM | COc1ccc2[nH]c(-c3ccccc3)c(CCNC(=O)C3CCC3)c2c1 | Agonist | – |
| 0.019 nM | COc1ccc2[nH]c(-c3ccccc3)c(CCNC(=O)C(F)(F)F)c2c1 | – | – |
| 633 nM | O=C(NCCc1c(-c2ccccc2)[nH]c2ccccc12)C1CCCC1 | – | Response (Xenopus laevis [4]): Antagonist |
| 216 nM | COc1ccc2[nH]c(-c3ccccc3)c(CCNC(=O)C3CCCCC3)c2c1 | Agonist | – |
| 1550 nM | O=C(NCCc1c(-c2ccccc2)[nH]c2ccccc12)C1CCCCC1 | – | Response (Xenopus laevis [4]): Antagonist |
| 0.0558 nM | CCCC(=O)NCCc1c(-c2ccccc2)[nH]c2ccc(OC)cc12 | – | – |
| 0.3047 nM | COc1ccc2[nH]c(-c3ccccc3)c(CCNC(=O)C3CC3)c2c1 | – | – |
